Measurements as given in US5670364A, “A83543 compounds and process for production thereof” (priority 1995, dated 1997).
In brackets after ≈: the same amount, converted by molar mass.

Columns and labels:
Southern Corn Rootworm = assay: Mite/Insect Screen, southern corn rootworm (SCRW); type: in vivo, Diabrotica undecimpunctata howardi; details: 264 h, 11 day
Description: (§1) The Formula 2 compounds were tested for miticidal and insecticidal activity in the following mite/insect screen. Each test compound was formulated by dissolving the compound in an acetone-alcohol (1:1) mixture containing 23 g of TOXIMUL R (sulfonate/nonionic emulsifier blend) and 13 g of TOXIMUL S (sulfonate/nonionic emulsifier blend) per liter. These mixtures were then diluted with water to give the indicated concentrations.
(§2) Two-spotted spider mites and cotton aphids were introduced on squash cotyledons and allowed to establish on both leaf surfaces. The leaves were then sprayed with 5 ml of test solutions using a DeVilbiss atomizing sprayer at 10 psi. Both surfaces of the leaves were covered until run off and then allowed to dry for one hour. After standard exposure periods percent mortality was evaluated. Additional insects were evaluated using similar formulations and evaluation procedures.

adult stable fly = assay: in vitro activity against adult stable fly; type: in vivo; details: Stomoxys calcitrans, 48 hours
Description: (§3) The Formula 2 compounds are also active against members of the insect order Diptera. Tables XI and XII summarize the in vitro studies of the Formula 2 compounds against blowfly larvae and adult stable fly at 48 hours.

Cotton Aphid = assay: Mite/Insect Screen, cotton aphid (CA); type: in vivo, Aphis gossypii Glover; details: Aphis gossypii, 4-5 day
Description: as §1, §2

Tobacco Budworm = assay: Mite/Insect Screen, tobacco budworm (TBW); type: in vivo; details: Heliothis virescens, 144 h, 6 day; for inhibition at 50 ppm: 50 ppm (rate in parenthesis)
Description: as §1, §2

Two-spotted Spider Mite = assay: Mite/Insect Screen, two-spotted spider mite (TSSM); type: in vivo; details: Tetranychus urticae, 4-5 day; for inhibition at 50 ppm: 50 ppm (rate in parenthesis)
Description: as §1, §2

Beet Armyworm = assay: Mite/Insect Screen, beet armyworm (BAW); type: in vivo, Spodoptera exiqua; details: Spodoptera exigua, 144 h, 6 day
Description: as §1, §2

neonate tobacco budworm = assay: LD50 against neonate tobacco budworm, petri dish assay; type: in vivo; details: Heliothis virescens; mean of two tests; mortality evaluated at 24 and 48 hours
Description: Formula 2 compounds were evaluated in the following assay to determine the LD50 against neonate tobacco budworm (Heliothis virescens). A petri dish (100 mm×20 mm) is inverted and the lid lined with a #1 qualitative filter paper. Ten neonate larvae are placed in each dish and a 1 ml test solution is pipetted onto the insects. The petri dish bottom is then placed on the lid to contain the larvae. At 1 hour after treatment, a small piece of Heliothis diet (modified slurry, Southland Products, Lake Village, AR) is added to each dish. The mortality is evaluated at 24 and 48 hours. The tests were run in triplicate.

Aster Leafhopper = assay: Mite/Insect Screen, aster leafhopper (ALH); type: in vivo; details: Macrosteles fascifrons, 24 hr
Description: as §1, §2

German Cockroach = assay: Mite/Insect Screen, German cockroach (GECR); type: in vivo; details: Blattella germanica
Description: as §1, §2

blowfly larvae = assay: in vitro activity against blowfly larvae; type: in vivo; details: 48 hours
Description: as §3

Rootknot Nematode = assay: Mite/Insect Screen, rootknot nematode (NEM); type: in vivo, Meiiiodyne spp.; details: 264 h, 11 day
Description: as §1, §2

[1] = test system: norepinephrine N-methyltransferase; details: cited from earlier work
[2] = test system: catechol O-methyltransferase; details: cited from earlier work
[3] = test system: macrocin O-methyltransferase; details: cited from earlier work
[4] = test system: histamine N-methyltransferase; details: cited from earlier work
[5] = test system: S-adenosyl-methionine-dependent O-methyltransferase; details: avermectin-producing strains; cited from earlier work

| Compound | inhibition at 200 ppm (Southern Corn Rootworm) | inhibition at 400 ppm (Southern Corn Rootworm) | inhibition at 200 ppm (Cotton Aphid) | inhibition at 400 ppm (Cotton Aphid) | inhibition at 400 ppm (Tobacco Budworm) | inhibition at 200 ppm (Two-spotted Spider Mite) | inhibition at 400 ppm (Two-spotted Spider Mite) | inhibition at 200 ppm (Beet Armyworm) | inhibition at 400 ppm (Beet Armyworm) | LC50 (neonate tobacco budworm) | inhibition at 200 ppm (Aster Leafhopper) | inhibition at 400 ppm (Aster Leafhopper) | inhibition at 200 ppm (German Cockroach; 168 h, 7 day) | inhibition at 400 ppm (German Cockroach; 168 h, 7 day) | inhibition at 200 ppm (German Cockroach; 504 h, 21 day) | inhibition at 400 ppm (German Cockroach; 504 h, 21 day) | inhibition at 200 ppm (Rootknot Nematode) | inhibition at 400 ppm (Rootknot Nematode) | inhibition at 50 ppm (Tobacco Budworm) | inhibition at 50 ppm (Two-spotted Spider Mite) | also measured |
| --- | --- | --- | --- | --- | --- | --- | --- | --- | --- | --- | --- | --- | --- | --- | --- | --- | --- | --- | --- | --- | --- |
| CCC1CCCC(OC2CCC(N(C)C)C(C)O2)C(C)C(=O)C2=CC3C(C=CC4CC(OC5OC(C)C(O)C(OC)C5OC)CC43)C2CC(=O)O1 (stereo not drawn) [A83543K] | 0% | 100% | 0% | 0% | 100% | 90% | 100% | 100% | 100% | 3.5 µg/mL (≈ 4.88 µM) | 100% | 100% | 0% | 0% | 0% | 80% | 0% | 0% |  |  | mortality at 2.5 ppm (adult stable fly; 2.5 ppm): 90%; inhibition at 200 ppm (Tobacco Budworm): 100%; % mortality (blowfly larvae; 2.5 ppm): 40% |
| CCC1CCCC(OC2CCC(N(C)C)C(C)O2)C(C)C(=O)C2=CC3C(C=C(C)C4CC(OC5OC(C)C(O)C(OC)C5OC)CC43)C2CC(=O)O1 (stereo not drawn) [A83543O] | 0% | 0% | 0% | 100% | 100% | 100% | 100% | 100% | 100% | 1.4 µg/mL (≈ 1.91 µM) | 100% | 100% | 0% | 0% | 20% | 100% | 0% | 0% |  |  | mortality at 5 ppm (adult stable fly; 5 ppm): 100%; inhibition at 200 ppm (Tobacco Budworm): 100% |
| CCC1CCCC(OC2CCC(N(C)C)C(C)O2)C(C)C(=O)C2=CC3C(C=CC4CC(OC5OC(C)C(O)C(O)C5OC)CC43)C2CC(=O)O1 (stereo not drawn) [A83543P] | 0% | 0% | 0% | 0% | 100% |  | 100% | 100% | 100% | > 64 µg/mL | 0% | 0% | 0% | 0% | 20% | 0% | 0% | 0% | 0% | 100% | mortality at 10 ppm (adult stable fly): 90%; % mortality (blowfly larvae; 10.0 ppm): 10% |
| CCC1CCCC(OC2CCC(N(C)C)C(C)O2)C(C)C(=O)C2=CC3C(C=CC4CC(OC5OC(C)C(O)C(OC)C5O)CC43)C2CC(=O)O1 (stereo not drawn) [A83543U] | 0% | 0% | 0% | 0% | 100% | 0% | 0% | 100% | 100% | 22 µg/mL (≈ 31.3 µM) | 100% | 100% | 0% | 0% | 0% | 0% | 0% | 0% | 100% |  |  |
| CCC1CCCC(OC2CCC(N(C)C)C(C)O2)C(C)C(=O)C2=CC3C(C=C(C)C4CC(OC5OC(C)C(O)C(O)C5OC)CC43)C2CC(=O)O1 (stereo not drawn) [A83543W] | 0% | 0% | 0% | 0% | 100% |  | 80% | 0% | 60% | > 64 µg/mL | 0% | 0% | 0% | 0% | 20% | 0% | 0% | 0% | 0% | 0% | mortality at 10 ppm (adult stable fly): 40%; % mortality (blowfly larvae; 10.0 ppm): 0% |
| COC1C(OC2CC3C=CC4C5CC(=O)OC(C)CCCC(OC6CCC(N(C)C)C(C)O6)C(C)C(=O)C5=CC4C3C2)OC(C)C(O)C1OC (stereo not drawn) [A83543Y] | 0% | 0% | 0% | 0% | 100% |  | 100% | 80% | 100% | 20 µg/mL (≈ 28.4 µM) | 60% | 80% | 0% | 0% |  |  |  |  | 0% | 0% | mortality at 10 ppm (adult stable fly): 90%; % mortality (blowfly larvae; 10.0 ppm): 100% |
| CCC1CCCC(OC2CCC(NC)C(C)O2)C(C)C(=O)C2=CC3C(C=CC4CC(OC5OC(C)C(O)C(OC)C5OC)CC43)C2CC(=O)O1 (stereo not drawn) [N-demethyl-K, N-demethyl-A83543K] |  | 60% | 0% | 0% | 100% |  | 100% | 100% | 100% | 9.8 µg/mL (≈ 13.9 µM) | 100% | 100% | 0% | 0% | 20% | 60% |  | 100% | 100% | 0% |  |
| Nc1ncnc2c1ncn2[C@@H]1O[C@H](C[C@@H](N)CC[C@H](N)C(=O)O)[C@@H](O)[C@H]1O [Sinefungin] |  |  |  |  |  |  |  |  |  |  |  |  |  |  |  |  |  |  |  |  | inhibition of norepinephrine N-methyltransferase [1]: effective in inhibiting; inhibition of catechol O-methyltransferase [2]: effective in inhibiting; inhibition of macrocin O-methyltransferase [3]: effective in inhibiting; inhibition of histamine N-methyltransferase [4]: effective in inhibiting; inhibition of O-methyltransferase in S. avermitilis [5]: effective in inhibiting |
